Data as given in patent US10167264B2, “Substituted pyrimidines useful as EGFR-T790M kinase inhibitors” (JIANGSU MEDOLUTION LTD, priority 2014, dated 2019).
Entries after “also recorded” stand apart in the source; their conditions may differ.

Key:
[1] = test system: NCI-H1975 cell line xenograft; experiment: Subcutaneous NCI-H1975 cell line xenograft model in nude mice; assay type: in vivo; details: for Tumor growth inhibition (TGI, %) in NCI-H1975 xenograft model: nude mice; for Efficacy in the NCI-H1975 xenograft study (in words): Day 14
Description: A representative protocol for the in vivo experiment is as follows to establish the subcutaneous NCI-H1975 cell line xenograft model in nude mice and to evaluate the in vivo therapeutic efficacy of the compounds: H1975 cells were cultured in RPMI1640 containing 10% fetal bovine serum, 1% L-glutamine, 100 U/mL penicillinG and 100 μg/mL streptomycin. Cells in logarithmic growth phase were harvested and resuspended in 1×PBS for implantation. Tumor xenografts were established by injecting tumor cells 5×10^6/mouse into the right flank by sc under sterile conditions. When the tumors reached an appropriate size (100-200 mm^3), mice were randomized into 6 mice per group (8 mice in control group). The tumors were measured using a caliper in two dimensions, length (a), and width (b). Tumor volumes were estimated from measurements of two diameters of the individual tumors as follows: Tumor Volume (mm^3)=(a×b^2)/2 The tumor sizes and animal body weights were measured twice a week. Mice were observed daily for clinical signs. Blood samples were collected 2 hours after the last treatment, plasma samples were prepared and stored at −80° C. Tumor tissues were separated, weighed, taken picture, and subsequently stored at −80° C. for further analysis. All animal experiments were performed in accordance with the Guidelines for Use and Care of Animals of the University of Traditional Medicine. The parameters for in vivo efficacy evaluation were calculated according to the guidance of SFDA. Percent T/C (%) was calculated with the following formula: T/C(%)=(TRTV/CRTV)×100%, where TRTV and CRTV stand for relative tumor volume in treatment group and vehicle control group, respectively. Relative tumor volume (RTV) was calculated using the formula: RTV=Vt/V0, where Vt represents volume on testing day, and V0 represents volume on first day of treatment. […] At the study endpoint, after blood collection, mice were practised euthanasia by cervical dislocation, the tumor tissue was collected first, then the abdominal cavity was cut open, liver and spleen were excised, and weighted after the gallblader was removed respectively. Organ weights between the treated versus the control groups were compared.

NCI-H1975 = experiment: Cell proliferation assay (MTT) against cancer cell line NCI-H1975; assay type: cell-based; details: Homo sapiens, NCI-H1975, 72 hours treatment, quantity not given
Description: A Representative Number of Compounds were Assayed Against Cancer Cell Lines NCI-H1975, Using the Cell Proliferation Assay:
1. 5×10^3 cells per well in 100 μl of medium were seeded in 96-well plate, while the medium contained 5% FBS
2. 24 hours later, 100 μl fresh medium was added with various concentrations of compounds into each well, while the medium here was free of FBS
3. After the cells were treated with compounds for 72 hours, 20 μl MTT (5 mg/ml) was added into each well, and then the assay plate was incubated at 37° C. for 4 more hours.
4. The assay plate was centrifuged at 800 g for 10 min. The medium was aspirated, 150 μl DMSO was added into each well. The plate was gently shaken for 10 min.
5. The absorbance at 570 nm was measured on the plate reader.

EGFR = EGFR (Homo sapiens (Human), UniProt P00533); experiment: In vitro EGFR kinase binding assay (Kd), similar condition
Description: (§1) Kinase-tagged T7 phage strains were prepared in an E. coli host derived from the BL21 strain. E. coli were grown to log-phase and infected with T7 phage and incubated with shaking at 32° C. until lysis. The lysates were centrifuged and filtered to remove cell debris. The remaining kinases were produced in HEK-293 cells and subsequently tagged with DNA for qPCR detection. Streptavidin-coated magnetic beads were treated with biotinylated small molecule ligands for 30 minutes at room temperature to generate affinity resins for kinase assays. The liganded beads were blocked with excess biotin and washed with blocking buffer (SeaBlock (Pierce), 1% BSA, 0.05% Tween 20, 1 mM DTT) to remove unbound ligand and to reduce non-specific binding. […] All reactions were performed in polystyrene 96-well plates in a final volume of 0.135 ml. […] The kinase concentration in the eluates was measured by qPCR.
(§2) An 11-point 3-fold serial dilution of each test compound was prepared in 100% DMSO at 100× final test concentration and subsequently diluted to 1× in the assay (final DMSO concentration=1%). Kds were determined using a compound top concentration=10,000 nM.
(§3) Binding constants (Kds) were calculated with a standard dose-response curve using the Hill equation: Response=Background+(Signal−Background)/(1+(Kd^Hill Slope/Dose^Hill Slope)). The Hill Slope was set to −1. […]

EGFR (E746-A750del) = EGFR (E746-A750del) (Homo sapiens (Human), UniProt P00533, DEL746-750); experiment: In vitro EGFR (E746-A750del) kinase binding assay (Kd), similar condition
Description: as §1, §2, §3

EGFR (T790M/L858R) = EGFR (T790M/L858R) (Homo sapiens (Human), UniProt P00533, L858R/T790M); experiment: In vitro EGFR (T790M/L858R) kinase binding assay (Kd, qPCR readout)
Description: as §1, §2
Binding constants (Kds) were calculated with a standard dose-response curve using the Hill equation: Response=Background+(Signal−Background)/(1+(Kd^Hill Slope/Dose^Hill Slope)). The Hill Slope was set to −1. Curves were fitted using a non-linear least square fit with the Levenberg-Marquardt algorithm.

EGFR (T790M/L858R), sequence (P00533 25-1210 T790M/L858R): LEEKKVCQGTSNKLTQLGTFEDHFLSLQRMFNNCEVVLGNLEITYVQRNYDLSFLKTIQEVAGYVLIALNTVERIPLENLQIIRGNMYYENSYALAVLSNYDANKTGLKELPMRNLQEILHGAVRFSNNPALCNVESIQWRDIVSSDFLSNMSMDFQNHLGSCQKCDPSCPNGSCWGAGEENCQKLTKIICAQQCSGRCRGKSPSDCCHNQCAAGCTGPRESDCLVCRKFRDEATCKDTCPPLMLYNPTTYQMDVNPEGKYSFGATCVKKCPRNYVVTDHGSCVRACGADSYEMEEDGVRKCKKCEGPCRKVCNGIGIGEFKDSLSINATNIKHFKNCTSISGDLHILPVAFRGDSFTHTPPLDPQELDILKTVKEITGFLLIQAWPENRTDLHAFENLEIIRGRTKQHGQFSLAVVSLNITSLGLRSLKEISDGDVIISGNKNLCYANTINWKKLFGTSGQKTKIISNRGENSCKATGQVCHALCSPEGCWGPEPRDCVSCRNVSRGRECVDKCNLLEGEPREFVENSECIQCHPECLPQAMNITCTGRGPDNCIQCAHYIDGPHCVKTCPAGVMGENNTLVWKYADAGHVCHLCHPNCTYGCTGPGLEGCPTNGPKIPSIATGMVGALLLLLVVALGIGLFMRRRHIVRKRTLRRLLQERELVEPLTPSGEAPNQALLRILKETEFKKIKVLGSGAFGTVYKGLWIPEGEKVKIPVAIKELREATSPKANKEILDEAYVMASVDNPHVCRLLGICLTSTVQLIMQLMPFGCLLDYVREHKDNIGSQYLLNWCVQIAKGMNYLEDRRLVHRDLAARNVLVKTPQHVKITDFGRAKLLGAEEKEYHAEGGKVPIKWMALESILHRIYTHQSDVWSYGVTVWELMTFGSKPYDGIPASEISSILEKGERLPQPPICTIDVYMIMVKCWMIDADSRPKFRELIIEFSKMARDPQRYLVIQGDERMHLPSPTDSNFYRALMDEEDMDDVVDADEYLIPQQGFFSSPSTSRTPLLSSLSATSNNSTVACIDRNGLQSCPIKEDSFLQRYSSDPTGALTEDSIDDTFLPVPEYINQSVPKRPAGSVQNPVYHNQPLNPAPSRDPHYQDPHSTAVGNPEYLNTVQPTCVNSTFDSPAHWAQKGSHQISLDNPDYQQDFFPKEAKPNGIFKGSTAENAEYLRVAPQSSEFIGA
EGFR, sequence (P00533 25-1210): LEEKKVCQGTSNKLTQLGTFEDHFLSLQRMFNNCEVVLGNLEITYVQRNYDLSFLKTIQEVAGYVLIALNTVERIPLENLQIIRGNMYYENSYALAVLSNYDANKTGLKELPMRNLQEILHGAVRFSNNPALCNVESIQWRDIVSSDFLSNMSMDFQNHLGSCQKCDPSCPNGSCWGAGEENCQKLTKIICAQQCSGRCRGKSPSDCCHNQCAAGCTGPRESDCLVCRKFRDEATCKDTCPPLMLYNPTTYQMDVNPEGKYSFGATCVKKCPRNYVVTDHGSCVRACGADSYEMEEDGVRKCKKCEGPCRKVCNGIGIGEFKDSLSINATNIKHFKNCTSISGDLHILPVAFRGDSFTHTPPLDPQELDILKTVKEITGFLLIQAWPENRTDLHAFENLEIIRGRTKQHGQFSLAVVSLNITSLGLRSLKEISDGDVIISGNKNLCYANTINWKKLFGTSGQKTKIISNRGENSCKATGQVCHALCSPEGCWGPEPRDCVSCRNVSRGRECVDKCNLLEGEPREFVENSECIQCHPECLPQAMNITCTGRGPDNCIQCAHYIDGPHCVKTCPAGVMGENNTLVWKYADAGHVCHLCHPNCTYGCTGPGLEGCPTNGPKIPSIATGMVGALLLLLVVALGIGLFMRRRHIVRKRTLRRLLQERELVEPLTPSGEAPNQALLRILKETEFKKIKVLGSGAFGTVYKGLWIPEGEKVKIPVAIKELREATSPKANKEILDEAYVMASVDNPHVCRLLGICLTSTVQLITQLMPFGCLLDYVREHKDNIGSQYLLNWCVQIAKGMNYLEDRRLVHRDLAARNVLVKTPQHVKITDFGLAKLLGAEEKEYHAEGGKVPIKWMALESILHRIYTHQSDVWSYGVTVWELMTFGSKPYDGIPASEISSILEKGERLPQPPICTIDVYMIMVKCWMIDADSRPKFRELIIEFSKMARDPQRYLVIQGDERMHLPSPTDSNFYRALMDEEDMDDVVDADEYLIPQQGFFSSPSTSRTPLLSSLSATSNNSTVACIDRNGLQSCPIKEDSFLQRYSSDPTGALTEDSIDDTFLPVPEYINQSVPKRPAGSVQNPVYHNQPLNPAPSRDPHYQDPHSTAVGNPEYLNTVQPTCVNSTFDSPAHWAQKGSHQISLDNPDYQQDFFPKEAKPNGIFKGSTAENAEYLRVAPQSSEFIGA
EGFR (E746-A750del), sequence (P00533 other isoform, or with tags, fused parts or gaps del E746-A750): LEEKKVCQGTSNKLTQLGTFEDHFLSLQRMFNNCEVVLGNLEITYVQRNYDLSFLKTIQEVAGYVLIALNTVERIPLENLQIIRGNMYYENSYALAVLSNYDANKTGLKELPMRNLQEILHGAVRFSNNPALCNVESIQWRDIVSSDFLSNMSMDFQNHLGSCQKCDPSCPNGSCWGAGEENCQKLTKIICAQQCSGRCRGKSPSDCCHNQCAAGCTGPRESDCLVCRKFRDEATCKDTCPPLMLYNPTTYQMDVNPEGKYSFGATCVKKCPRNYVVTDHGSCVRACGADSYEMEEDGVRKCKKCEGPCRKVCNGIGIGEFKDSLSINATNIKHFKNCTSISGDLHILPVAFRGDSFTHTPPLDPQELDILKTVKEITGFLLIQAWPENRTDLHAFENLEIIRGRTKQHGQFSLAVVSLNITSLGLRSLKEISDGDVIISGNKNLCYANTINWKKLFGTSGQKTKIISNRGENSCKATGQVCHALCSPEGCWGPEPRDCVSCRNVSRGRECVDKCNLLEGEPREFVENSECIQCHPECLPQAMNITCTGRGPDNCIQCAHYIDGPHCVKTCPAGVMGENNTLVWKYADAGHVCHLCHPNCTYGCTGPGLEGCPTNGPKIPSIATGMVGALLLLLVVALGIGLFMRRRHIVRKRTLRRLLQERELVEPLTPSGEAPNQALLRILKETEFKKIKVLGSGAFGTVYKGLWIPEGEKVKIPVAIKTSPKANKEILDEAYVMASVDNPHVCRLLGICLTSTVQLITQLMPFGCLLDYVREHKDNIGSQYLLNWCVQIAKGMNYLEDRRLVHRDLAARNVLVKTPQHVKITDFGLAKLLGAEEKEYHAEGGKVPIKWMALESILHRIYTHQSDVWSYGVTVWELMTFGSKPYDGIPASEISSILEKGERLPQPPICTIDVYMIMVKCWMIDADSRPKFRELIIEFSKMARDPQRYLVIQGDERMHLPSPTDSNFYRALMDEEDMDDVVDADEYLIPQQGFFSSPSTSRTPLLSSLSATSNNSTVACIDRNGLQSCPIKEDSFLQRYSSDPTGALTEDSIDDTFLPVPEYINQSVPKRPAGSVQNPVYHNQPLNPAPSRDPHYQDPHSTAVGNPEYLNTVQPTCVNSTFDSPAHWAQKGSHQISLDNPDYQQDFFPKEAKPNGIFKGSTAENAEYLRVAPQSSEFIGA

| Structure (SMILES) | Tumor growth inhibition (TGI, %) in NCI-H1975 xenograft model ([1]; Day 14, 30 mg/kg) | IC50 (NCI-H1975) | Efficacy in the NCI-H1975 xenograft study (in words) [1] | Kd (EGFR) | Kd (EGFR (E746-A750del)) | Kd (EGFR (T790M/L858R)) | Tumor growth inhibition (TGI, %) in NCI-H1975 xenograft model ([1]; Day 14, 6 mg/kg) |
| --- | --- | --- | --- | --- | --- | --- | --- |
| C=CC(=O)Nc1cccc(Nc2nc(Nc3ccc(N4CCN(C(C)=O)CC4)cc3OC)ncc2C(F)(F)F)c1 [CO-1686, reference compound] | TGI = 83% | 910 nM |  |  |  |  |  |
| C=CC(=O)Nc1cccc(Nc2nc(Nc3ccc(N4CCN(C(C)=O)CC4)cc3)ncc2C(F)(F)F)c1 [Compound 8, N-[3-[[2-[4-(4-acetylpiperazin-1-yl)anilino]-5-(trifluoromethyl)pyrimidin-4-yl]amino]phenyl]prop-2-enamide] | TGI = 49% |  | good efficacy | 84 nM | 26 nM | 0.54 nM |  |
| C=CC(=O)Nc1cccc(Nc2nc(Nc3ccc(N4CCN(CC)CC4)cc3)ncc2C(F)(F)F)c1 [Compound 9, N-[3-[[2-[4-(4-ethylpiperazin-1-yl)anilino]-5-(trifluoromethyl)pyrimidin-4-yl]amino]phenyl]prop-2-enamide] |  | < 10 nM | good efficacy; also recorded: much better tumor growth inhibition compared with CO-1686 | 15 nM | 4 nM | 0.037 nM | TGI = 76% |
| C=CC(=O)Nc1cccc(Nc2nc(Nc3ccc(N4CCN(CC)CC4)cc3OC)ncc2C(F)(F)F)c1 [Compound 10, N-[3-[[2-[4-(4-ethylpiperazin-1-yl)-2-methoxy-anilino]-5-(trifluoromethyl)pyrimidin-4-yl]amino]phenyl]prop-2-enamide] |  | 150 nM |  |  |  | 0.28 nM |  |
| C=CC(=O)Nc1cccc(Oc2nc(Nc3ccc(N4CCN(C)CC4)cc3OC)ncc2Cl)c1 [WZ4002, reference compound] |  | 67 nM |  |  |  |  |  |
